Laboratory results published in patent US20230151025A1, “SUBSTITUTED THIAZOLOPYRIDINES, SALTS THEREOF AND THEIR USE AS HERBICIDALLY ACTIVE SUBSTANCES” (Bayer Aktiengesellschaft, priority 2020, published 2023).

Legend:
Assay type in all cases: in vivo
Avena fatua = test: Herbicidal pre-emergence action (C), 320 g/ha; conditions: ca. 3 weeks
Method in brief: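 Weed and crop seeds sown in sandy loam; WP or EC formulations applied pre-emergence to the soil surface as aqueous suspension/emulsion with 0.5% additive at 600 l water/ha. Greenhouse-grown under optimum conditions; damage visually scored after ca. 3 weeks versus untreated controls (0% = as control, 100% = plants dead).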

Veronica persica (VERPE) = test: Herbicidal post-emergence action (B), 1280 g/ha
Method in brief: (§1)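 Foliar post-emergence treatment of one-leaf-stage weeds with WP or EC preparations in water plus 0.5% additive, sprayed at 600 L/ha. Visual efficacy was assessed after roughly 3 weeks relative to untreated controls, 100% being complete kill.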

[1] = tested on: Abutilon theophrasti (ABUTH); test: Herbicidal post-emergence action (B), 1280 g/ha; conditions: rated visually after about 3 weeks vs untreated controls
Method in brief: as §1

[2] = tested on: Amaranthus retroflexus (AMARE); test: Herbicidal post-emergence action (B), 1280 g/ha; conditions: rated visually after about 3 weeks vs untreated controls
Method in brief: as §1

[3] = tested on: Kochia scoparia (KCHSC; Bassia scoparia); test: Herbicidal post-emergence action (B), 1280 g/ha
Method in brief: as §1

[4] = tested on: Digitaria sanguinalis (DIGSA); test: Herbicidal post-emergence action (B), 1280 g/ha; conditions: rated visually after about 3 weeks vs untreated controls
Method in brief: as §1

Setaria viridis (SETVI) [5] = test: Herbicidal post-emergence action (B), 1280 g/ha; conditions: rated visually after about 3 weeks vs untreated controls
Method in brief: as §1

Stellaria media (STEME) = test: Herbicidal post-emergence action (B), 1280 g/ha
Method in brief: as §1

Poa annua (POAAN) = test: Herbicidal post-emergence action (B), 1280 g/ha; conditions: rated visually after about 3 weeks vs untreated controls
Method in brief: as §1

[6] = tested on: Alopecurus myosuroides (ALOMY); test: Herbicidal post-emergence action (B), 1280 g/ha; conditions: rated visually after about 3 weeks vs untreated controls
Method in brief: as §1

[7] = tested on: Echinochloa crus-galli (ECHCG); test: Herbicidal post-emergence action (B), 1280 g/ha; conditions: rated visually after about 3 weeks vs untreated controls
Method in brief: as §1

[8] = tested on: Polygonum convolvulus (POLCO); test: Herbicidal pre-emergence action (C), 320 g/ha; conditions: ca. 3 weeks
Method in brief: (§2)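 Seeds sown in sandy loam; WP or EC formulations sprayed on covering soil pre-emergence at 320 g/ha in 600 l water/ha with 0.5% additive. Greenhouse culture; damage scored visually after ca. 3 weeks versus untreated controls (0% = as control, 100% = plants dead).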

Lolium rigidum (LOLRI) = test: Herbicidal post-emergence action (B), 1280 g/ha; conditions: one-leaf stage, rated after about 3 weeks vs untreated controls, 100% activity = the plants have died, 0% = like control plants
Method in brief: as §1

[9] = tested on: Digitaria sanguinalis (DIGSA); test: Herbicidal post-emergence action (D), 320 g/ha; conditions: ca. 3 weeks
Excerpt: Seeds of mono- and dicotyledonous weed plants and crop plants were sown, in plastic or organic planting pots, in sandy loam, covered with soil and grown in a greenhouse under controlled growth conditions. 2 to 3 weeks after sowing, the test plants were sprayed in the single-leaf stage. The compounds according to the invention, formulated in form of wettable powders (WP) or as emulsifiable concentrates (EC), were sprayed onto the green plant parts as aqueous suspension or emulsion, with the addition of 0.5% of an additive, at an application rate of 600 l of water/ha (converted). The test plants were placed in the greenhouse for ca. 3 weeks under optimum growth conditions, and then the effect of the preparations was assessed visually in comparison with untreated controls (herbicidal effect in percent (%): 100% effect=plants have died off, 0% effect=as control plants).
Tables D1 to D13 below show the effects of selected compounds of the general formula (I) according to table 1 on various harmful plants and an application rate corresponding to 320 g/ha obtained by the experimental procedure mentioned above.

[10] = tested on: Matricaria inodora (MATIN); test: Herbicidal pre-emergence action (C), 320 g/ha; conditions: ca. 3 weeks
Method in brief: as §2

Viola tricolor (VIOTR) = test: Herbicidal pre-emergence action (C), 320 g/ha; conditions: ca. 3 weeks
Method in brief: as §2

[11] = tested on: Matricaria inodora (MATIN); test: Herbicidal post-emergence action (B), 1280 g/ha; conditions: rated visually after about 3 weeks vs untreated controls
Method in brief: as §1

[12] = tested on: Abutilon theophrasti (ABUTH); test: Herbicidal pre-emergence action (C), 320 g/ha; conditions: ca. 3 weeks
Method in brief: as §2

[13] = tested on: Abutilon theophrasti (ABUTH); test: Herbicidal post-emergence action (D), 320 g/ha; conditions: ca. 3 weeks
Method in brief: (§3)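 Scores are percent visual control, where 100% means plants died and 0% means no difference from untreated, taken roughly 3 weeks after a single foliar application at 600 l water/ha with 0.5% additive to single-leaf-stage greenhouse plants grown in sandy loam.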

Setaria viridis (SETVI) [14] = test: Herbicidal post-emergence action (D), 320 g/ha; conditions: ca. 3 weeks
Method in brief: as §3

Structure (SMILES)	herbicidal effect AVEFA (Avena fatua)	herbicidal effect VERPE (Veronica persica (VERPE))	herbicidal activity ABUTH [1]	herbicidal activity AMARE [2]	herbicidal effect KCHSC [3]	herbicidal activity DIGSA [4]	herbicidal activity SETVI (Setaria viridis (SETVI) [5])	herbicidal effect STEME (Stellaria media (STEME))	herbicidal activity POAAN (Poa annua (POAAN))	herbicidal activity ALOMY [6]	herbicidal activity ECHCG [7]	herbicidal effect POLCO [8]	LOLRI, activity rated visually (%) (Lolium rigidum (LOLRI))	herbicidal effect DIGSA [9]	herbicidal effect MATIN [10]	herbicidal effect VIOTR (Viola tricolor (VIOTR))	herbicidal activity MATIN [11]	herbicidal effect ABUTH [12]	herbicidal effect ABUTH [13]	herbicidal effect SETVI (Setaria viridis (SETVI) [14])
Cc1cc2scnc2nc1-c1ccc(F)cc1F [Example I-122]	100%	100%	90%	100%	100%	100%	90%	100%	100%	100%	90%									
CCc1cc2scnc2nc1-c1ccc(F)cc1F [Example I-030]		90%	100%	100%	100%	100%	90%	90%	100%	90%	100%	80%	90%							
Cc1cc2scnc2nc1-c1sccc1Cl [Example I-137]	80%	100%	90%	100%	90%	100%	100%	100%	100%	100%	100%		90%	90%	90%	90%	90%			
CCc1cc2scnc2nc1-c1ccccc1F [Example I-023]		90%	100%	100%	90%	100%	100%	100%	100%	100%	100%	80%	100%	80%	90%	80%		80%	80%	80%
COc1ccccc1-c1nc2ncsc2cc1C [Example I-124]		100%	100%	90%	100%	100%	90%	100%	100%	100%	90%				80%	90%				
Fc1ccccc1-c1nc2ncsc2cc1I [Example I-188]	100%			100%	90%		90%	90%	90%		90%	80%	90%				90%	80%		100%
CCc1cc2scnc2nc1-c1cccc(F)c1 [Example I-029]		90%	100%	100%	100%	100%	100%	100%	100%	100%	100%									
Fc1ccccc1-c1nc2ncsc2cc1C1CC1 [Example I-102]		100%		100%	100%	100%	100%	100%	90%	100%	100%					80%	90%			80%
Cc1cc2scnc2nc1-c1sccc1C [Example I-143]	90%	100%	100%	100%	100%		90%	100%	100%	100%	100%		100%		90%		100%	80%		80%
Cc1cc2scnc2nc1-c1cccc(F)c1 [Example I-003, 5-(3-fluorophenyl)-6-methyl-thiazolo[4,5-b]pyridine]		90%		100%	90%	90%	90%	100%	100%	100%	100%	80%				80%				80%
